Measurements: ChEMBL document CHEMBL4406913, “INCB050465 (Parsaclisib), a Novel Next-Generation Inhibitor of Phosphoinositide 3-Kinase Delta (PI3Kδ)” (ACS Med Chem Lett, 2019)

How the values were obtained:
[1] = Tmax in cynomolgus monkey at 4 mg/kg, po measured for 24 hrs by LC-MS/MS analysis; format: ADME, organism-based, Macaca fascicularis; details: in vivo
[2] = Volume of distribution at steady state in cynomolgus monkey at 2 mg/kg, iv measured for 24 hrs by LC-MS/MS analysis; format: ADME, organism-based, Macaca fascicularis; details: in vivo, read-out: Vdss
Cytochrome P450 2C8 = biological target: T1, Cytochrome P450 2C8 (Homo sapiens, UniProt P10632); assay: Inhibition of CYP2C8 in human liver microsomes at 0.1 to 25 uM using amodiaquine as substrate by LC/MS analysis; format: ADME
T1 sequence (P10632 whole entry): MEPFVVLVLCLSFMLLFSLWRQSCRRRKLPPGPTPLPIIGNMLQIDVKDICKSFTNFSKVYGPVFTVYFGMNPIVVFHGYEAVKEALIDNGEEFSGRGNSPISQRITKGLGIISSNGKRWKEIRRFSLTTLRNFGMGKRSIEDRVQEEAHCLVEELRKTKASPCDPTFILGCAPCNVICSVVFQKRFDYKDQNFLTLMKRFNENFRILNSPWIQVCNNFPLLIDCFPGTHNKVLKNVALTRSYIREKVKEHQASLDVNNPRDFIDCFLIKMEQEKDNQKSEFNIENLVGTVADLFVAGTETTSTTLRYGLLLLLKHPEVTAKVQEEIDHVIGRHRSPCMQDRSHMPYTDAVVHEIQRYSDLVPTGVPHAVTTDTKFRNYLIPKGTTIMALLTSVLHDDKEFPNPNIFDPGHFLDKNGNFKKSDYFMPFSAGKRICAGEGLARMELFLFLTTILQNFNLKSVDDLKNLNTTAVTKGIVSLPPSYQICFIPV

[3] = biological target: Phosphatidylinositol 4,5-bisphosphate 3-kinase catalytic subunit gamma isoform (Homo sapiens, UniProt P48736); assay: Inhibition of PI3Kgamma (unknown origin) using D-myophosphatidylinositol 4,5-bisphosphate as substrate incubated for 120 mins by [gamma-33P]-ATP based scintillation counting method
Chain of Phosphatidylinositol 4,5-bisphosphate 3-kinase catalytic subunit gamma isoform (P48736 whole entry, canonical isoform): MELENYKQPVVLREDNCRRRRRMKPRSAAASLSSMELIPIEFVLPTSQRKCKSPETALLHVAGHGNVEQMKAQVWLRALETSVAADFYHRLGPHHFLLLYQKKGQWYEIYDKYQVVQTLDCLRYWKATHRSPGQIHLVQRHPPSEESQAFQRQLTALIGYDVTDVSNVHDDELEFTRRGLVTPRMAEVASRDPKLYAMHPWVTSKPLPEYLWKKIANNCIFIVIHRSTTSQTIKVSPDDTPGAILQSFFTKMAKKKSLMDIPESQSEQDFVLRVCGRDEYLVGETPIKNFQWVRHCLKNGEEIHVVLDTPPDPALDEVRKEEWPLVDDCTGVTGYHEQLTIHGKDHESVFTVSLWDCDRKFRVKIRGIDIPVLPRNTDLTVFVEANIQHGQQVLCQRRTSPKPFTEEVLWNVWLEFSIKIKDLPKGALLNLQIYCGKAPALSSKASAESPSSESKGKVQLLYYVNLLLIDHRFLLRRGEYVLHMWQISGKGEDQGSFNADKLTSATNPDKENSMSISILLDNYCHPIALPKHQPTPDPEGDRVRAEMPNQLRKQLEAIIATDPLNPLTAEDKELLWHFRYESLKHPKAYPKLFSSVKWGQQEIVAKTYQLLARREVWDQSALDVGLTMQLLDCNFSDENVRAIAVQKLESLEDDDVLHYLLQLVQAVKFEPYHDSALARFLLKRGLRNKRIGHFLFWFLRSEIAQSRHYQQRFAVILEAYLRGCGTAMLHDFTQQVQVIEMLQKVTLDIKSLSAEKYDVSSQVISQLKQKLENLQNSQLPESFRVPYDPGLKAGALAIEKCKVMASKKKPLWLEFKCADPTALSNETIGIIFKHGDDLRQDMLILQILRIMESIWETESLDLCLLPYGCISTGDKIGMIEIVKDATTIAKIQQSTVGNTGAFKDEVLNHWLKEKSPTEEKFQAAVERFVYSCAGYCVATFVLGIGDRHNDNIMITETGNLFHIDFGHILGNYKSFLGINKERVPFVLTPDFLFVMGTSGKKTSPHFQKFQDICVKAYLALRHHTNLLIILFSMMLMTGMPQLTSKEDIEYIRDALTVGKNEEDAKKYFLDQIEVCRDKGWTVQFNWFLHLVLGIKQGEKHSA

[4] = Oral bioavailability in rat at 4 mg/kg measured for 24 hrs by LC-MS/MS analysis; format: ADME, organism-based; details: in vivo
[5] = Clearance in cynomolgus monkey at 2 mg/kg, iv measured for 24 hrs by LC-MS/MS analysis; format: ADME, organism-based, Macaca fascicularis; details: in vivo
[6] = Tmax in rat at 4 mg/kg, po measured for 24 hrs by LC-MS/MS analysis; format: ADME, organism-based; details: in vivo
Cytochrome P450 2B6 = biological target: T2, Cytochrome P450 2B6 (Homo sapiens, UniProt P20813); assay: Inhibition of CYP2B6 in human liver microsomes at 0.1 to 25 uM using bupropion as substrate by LC/MS analysis; format: ADME
T2 sequence (P20813 whole entry): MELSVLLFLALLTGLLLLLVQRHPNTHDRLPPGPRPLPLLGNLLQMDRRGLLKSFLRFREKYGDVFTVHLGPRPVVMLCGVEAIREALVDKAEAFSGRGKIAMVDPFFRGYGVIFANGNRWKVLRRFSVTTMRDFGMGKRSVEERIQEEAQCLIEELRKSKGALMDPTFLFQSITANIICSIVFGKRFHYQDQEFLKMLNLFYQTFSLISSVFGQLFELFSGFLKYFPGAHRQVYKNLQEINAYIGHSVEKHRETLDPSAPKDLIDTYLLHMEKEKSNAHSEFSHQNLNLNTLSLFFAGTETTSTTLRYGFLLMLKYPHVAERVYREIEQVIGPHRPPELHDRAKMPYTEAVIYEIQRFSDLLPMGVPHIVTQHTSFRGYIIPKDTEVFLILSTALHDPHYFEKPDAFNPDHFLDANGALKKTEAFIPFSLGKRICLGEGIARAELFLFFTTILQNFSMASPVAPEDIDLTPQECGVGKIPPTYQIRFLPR

[7] = biological target: T3, Phosphatidylinositol 4,5-bisphosphate 3-kinase catalytic subunit delta isoform (Homo sapiens, UniProt O00329)
T3 sequence (O00329 whole entry): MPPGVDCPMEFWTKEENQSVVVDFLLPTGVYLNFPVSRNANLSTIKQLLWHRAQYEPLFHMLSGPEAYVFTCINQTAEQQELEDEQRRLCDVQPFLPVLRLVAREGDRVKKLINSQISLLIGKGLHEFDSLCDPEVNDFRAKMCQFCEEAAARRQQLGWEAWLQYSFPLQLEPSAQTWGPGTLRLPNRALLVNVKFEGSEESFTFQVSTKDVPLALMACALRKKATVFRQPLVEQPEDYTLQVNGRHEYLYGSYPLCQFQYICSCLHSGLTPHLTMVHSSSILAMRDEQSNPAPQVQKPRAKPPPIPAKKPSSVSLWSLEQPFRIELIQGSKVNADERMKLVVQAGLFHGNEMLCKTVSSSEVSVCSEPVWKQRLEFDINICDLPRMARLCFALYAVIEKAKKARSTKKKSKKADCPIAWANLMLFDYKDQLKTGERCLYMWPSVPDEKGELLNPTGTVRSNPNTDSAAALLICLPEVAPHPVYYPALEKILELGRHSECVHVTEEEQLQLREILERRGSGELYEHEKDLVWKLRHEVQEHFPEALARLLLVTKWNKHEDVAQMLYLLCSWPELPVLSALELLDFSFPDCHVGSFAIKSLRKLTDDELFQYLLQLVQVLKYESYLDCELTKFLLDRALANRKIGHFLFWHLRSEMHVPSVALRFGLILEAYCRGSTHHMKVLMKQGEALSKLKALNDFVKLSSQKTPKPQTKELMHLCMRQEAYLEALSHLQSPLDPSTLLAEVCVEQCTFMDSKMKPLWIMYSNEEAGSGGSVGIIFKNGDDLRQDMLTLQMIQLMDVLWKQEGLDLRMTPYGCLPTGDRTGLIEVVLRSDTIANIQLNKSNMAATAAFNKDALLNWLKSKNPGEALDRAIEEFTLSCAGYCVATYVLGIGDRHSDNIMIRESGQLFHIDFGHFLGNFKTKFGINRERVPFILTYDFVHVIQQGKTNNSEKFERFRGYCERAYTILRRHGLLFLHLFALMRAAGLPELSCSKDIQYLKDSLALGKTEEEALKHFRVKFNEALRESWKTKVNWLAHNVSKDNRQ
Description: Inhibition of PI3Kdelta (unknown origin) using D-myophosphatidylinositol 4,5-bisphosphate as substrate incubated for 120 mins by [gamma-33P]ATP based SPA assay

[8] = biological target: T3, Phosphatidylinositol 4,5-bisphosphate 3-kinase catalytic subunit delta isoform; assay: Inhibition of PI3Kdelta in human whole blood assessed as reduction in anti-IgE antibody-induced CD63 expression by flow cast kit method; format: tissue-based
Cytochrome P450 2C19 = Cytochrome P450 2C19 (Homo sapiens, UniProt P33261); assay: Inhibition of CYP2C19 in human liver microsomes at 0.1 to 25 uM using S-mephenytoin as substrate by LC/MS analysis; format: ADME
Chain of Cytochrome P450 2C19 (P33261 whole entry): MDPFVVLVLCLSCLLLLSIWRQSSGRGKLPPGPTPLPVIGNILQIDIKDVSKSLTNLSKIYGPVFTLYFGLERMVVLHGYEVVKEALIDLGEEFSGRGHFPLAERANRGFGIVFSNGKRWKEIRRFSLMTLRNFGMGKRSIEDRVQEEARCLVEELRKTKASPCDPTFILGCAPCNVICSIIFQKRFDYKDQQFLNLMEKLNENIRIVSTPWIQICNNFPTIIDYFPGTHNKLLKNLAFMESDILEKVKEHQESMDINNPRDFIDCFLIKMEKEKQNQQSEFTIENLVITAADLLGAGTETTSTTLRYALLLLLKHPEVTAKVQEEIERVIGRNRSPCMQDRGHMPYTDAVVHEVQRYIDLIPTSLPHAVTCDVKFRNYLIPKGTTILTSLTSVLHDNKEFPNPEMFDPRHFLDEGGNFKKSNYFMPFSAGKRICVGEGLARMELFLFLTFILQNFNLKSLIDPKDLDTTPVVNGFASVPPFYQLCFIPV

[9] = Clearance in Beagle dog at 2 mg/kg, iv measured for 24 hrs by LC-MS/MS analysis; format: ADME, organism-based, Canis lupus familiaris; details: in vivo
SU-DHL-6 = assay: Cytotoxicity against human SUDHL6 cells assessed as reduction in cell viability incubated for 4 days by celltiter glo luminescent assay; format: functional, cell-based; details: SU-DHL-6, 96 h
Cytochrome P450 2D6 = Cytochrome P450 2D6 (Homo sapiens, UniProt P10635); assay: Inhibition of CYP2D6 in human liver microsomes using bufuralol as substrate by LC/MS analysis; format: ADME
Chain of Cytochrome P450 2D6 (P10635 whole entry): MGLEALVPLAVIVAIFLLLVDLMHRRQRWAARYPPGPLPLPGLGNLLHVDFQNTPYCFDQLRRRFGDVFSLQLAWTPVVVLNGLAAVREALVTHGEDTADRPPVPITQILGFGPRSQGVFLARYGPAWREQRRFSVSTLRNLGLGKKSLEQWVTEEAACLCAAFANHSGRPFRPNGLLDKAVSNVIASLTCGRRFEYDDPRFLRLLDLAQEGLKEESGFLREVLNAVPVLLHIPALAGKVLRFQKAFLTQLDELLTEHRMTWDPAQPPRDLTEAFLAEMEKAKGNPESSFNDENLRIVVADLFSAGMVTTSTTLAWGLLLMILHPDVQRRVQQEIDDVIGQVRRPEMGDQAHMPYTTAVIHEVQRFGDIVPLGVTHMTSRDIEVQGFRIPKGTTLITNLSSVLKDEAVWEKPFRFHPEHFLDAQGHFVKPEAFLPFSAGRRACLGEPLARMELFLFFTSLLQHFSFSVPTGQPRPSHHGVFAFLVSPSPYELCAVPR

Pfeiffer = assay: Cytotoxicity against human Pfeiffer cells assessed as reduction in protein binding adjusted cell viability incubated for 4 days by [3H]-thymidine incorporation based liquid scintillation counter method; format: functional
[10] = Fractional unbound in human plasma; format: ADME, cell-free

Tmax [1]: 2.5 h
Vd [2]: 0.72 L/kg
inhibition (INH) (Cytochrome P450 2C8): Not Active
IC50 [3]: > 10000 nM
bioavailability [4]: 74%
CL [5]: 5%
Tmax [6]: 0.3 h
inhibition (INH) (Cytochrome P450 2B6): Not Active
IC50 [7]: < 1 nM
IC50 [8]: 2 nM
inhibition (INH) (Cytochrome P450 2C19): Not Active
CL [9]: 2%
inhibition (INH) (Cytochrome P450 2D6): Not Active
fraction unbound [10]: 0.058
Compound: CCOc1c([C@H](C)n2nc(C)c3c(N)ncnc32)cc(Cl)c(F)c1[C@@H]1CNC(=O)C1 [PARSACLISIB]
IC50 (SU-DHL-6): 1.6 nM
IC50 (Pfeiffer): 4.2 nM
